The values below come from patent publication US20110071072A1, “Antifungal Bone Cements” (Georgetown University, A Congressionally Chartered …, priority 2009, published 2011).

Numbered stars: 1 amine (or outer) side, 2 acyl side, 3 side chain; on linkers, the order of the positions; unused ones are H or OH. Bridge positions count the residues as written; N and C are the ends. Square brackets hold non-standard residues; d marks the D form. Peptide text beside a SMILES is read from it. * marks the point of attachment. hTyr(3S-OH,4S-OH,3'-OSO3H) = N[C@H](C(=O)O)[C@H](O)[C@@H](O)c1ccc(O)c(OS(=O)(=O)O)c1; Orn(4R-OH,5R-OH) = O=C([C@H](C[C@@H](O)[C@@H](O)N[*:3])N[*:1])[*:2]; Pro(3S-OH,4S-Me) = C[C@H]1CN[C@H](C(=O)O)[C@H]1O; X1 = CCCCCOc1ccc(-c2cc(-c3ccc(C(=O)*)cc3)no2)cc1; Gln(3R-OH) = NC(=O)C[C@@H](O)[C@H](N)C(=O)O; Hyp = O=C(O)[C@@H]1C[C@@H](O)CN1

For experiment [1], the system named is C. albicans. Description: Agar diffusion: zone of growth inhibition around PM-cement discs impregnated with antifungal. Format: cell-based. The settings on record: for duration of activity / inhibitory activity compared with voriconazole: PM cement discs; for duration of activity: days of incubation; for time up to which anti-candida activity was detected: cement discs, post-incubation; for inhibitory activity compared with voriconazole: in words. On the procedure:
The echinocandin antifungal micafungin or the triazole voriconazole were mixed with polymethylmethacrylate and a bone cement was formed using the mixture. C. albicans was grown overnight in T-soy broth, washed in buffer, then 1000 C. albicans yeast cells were added to the agar surface of a medium containing RPMI, MOPS, and 2% glucose, which was prepared by adding the latter to autoclaved agar after the agar had cooled for 15 min. Cement discs containing micafungin (100 mg) or voriconazole (400 mg) were prepared as described below. Each cement-antifungal disc was placed on the agar culture medium containing the organism.
The antifungal-cement mix (Smartset HV®, bone cement, DePuy (Warsaw, Ind.)) was prepared as follows under sterile conditions: the polymethylmethacrylate (PM) cement powder (part 1) was first mixed thoroughly with each drug and, then 18.88 g of bone cement liquid (part 2) was added to the mixture. Discs of cement-drug were prepared quickly before the cement hardened. Each cement disc (14 mm) was then placed in the center of inoculated agar cultures in 60 mm petri dishes. The plates were then incubated at 30° C. and zones of inhibition were measured every 24 hrs until activity was not observed (usually 6 days). The same discs were removed daily and placed on fresh agar medium that was inoculated similarly.
At 24 hrs, cement discs containing the antifungal micafungin were about 2.5-fold greater in activity that voriconazole. Further, the activity of micafungin was still detected at 120 hrs post-incubation, while no activity was detected after 24 hrs with voriconazole. Data were plotted as mm growth inhibition versus days of incubation (Table 1). The plates were digitally photographed using image processing software.
For orientation: A growth-free zone around the sample is the usual read-out of agar diffusion tests.

The subject of experiment [2] is C. albicans. Nature of the experiment: Growth inhibition by PM-cement or hydroxyapatite (HA) infiltrated with micafungin or anidulafungin (FIG. 2). Format: cell-based, Candida albicans. The protocol: FIG. 2 is a graph showing comparisons of micafungin (MIC) and anidulafungin (ANA) infiltrated in hydrozyapatite (HA) or polymethylmethacrylate (PM)-cement and their inhibitory activity against C. albicans.
Both PM-cement and hydroxyapatite (HA) infiltrated with either micafungin or anidulafungin were evaluated. […] The results again indicated the superiority of micafungin (especially the longevity or diffusion of the drug) regardless of whether the drug was infiltrated in HA or PM cement.

As for `C[C@@H](c1ncncc1F)[C@](O)(Cn1cncn1)c1ccc(F)cc1F` [voriconazole], the duration of activity is 1 days in the experiment with C. albicans [1] and no more than 1 days with C. albicans [1] (listed as voriconzole). Moreover, the “time up to which anti-candida activity was detected” value in the experiment on C. albicans [1] was no more than 24 h.

As to `CCCCCOc1ccc(-c2cc(-c3ccc(C(=O)N[C@H]4C[C@@H](O)[C@@H](O)NC(=O)[C@@H]5[C@@H](O)[C@@H](C)CN5C(=O)[C@H]([C@H](O)CC(N)=O)NC(=O)[C@H]([C@H](O)[C@@H](O)c5ccc(O)c(OS(=O)(=O)O)c5)NC(=O)[C@@H]5C[C@@H](O)CN5C(=O)[C@H]([C@@H](C)O)NC4=O)cc3)no2)cc1` [micafungin] (X1-[Orn(4R-OH,5R-OH)]T[Hyp][hTyr(3S-OH,4S-OH,3'-OSO3H)][Gln(3R-OH)][Pro(3S-OH,4S-Me)]; lactam 1-C), in the experiment on C. albicans [1], the duration of activity was no less than 6 days, the “inhibitory activity compared with voriconazole” value is on record as “much greater” and the “time up to which anti-candida activity was detected” value is no less than 120 h. Also, the “inhibitory activity compared with voriconazole” value in the experiment on C. albicans [1] (listed as Micafungin) was “superior and longer lasting”. Besides, the “activity of cement discs relative to voriconazole discs” value with C. albicans [1] (at 24 hrs, micafungin 100 mg vs voriconazole 400 mg discs) is reported as “about 2.5 fold”. In the experiment on C. albicans [2] (HA or PM cement, in words), the “in vitro anti-Candida albicans activity, comparison” value was “significantly greater than that of voriconazole and anidulafungin”. In the experiment with C. albicans [2] (drug infiltrated in HA or PM cement), the persistence of activity was in the range of 6 to 7 days.
